Experimental data from patent publication US8759332B2, “Hepatitis C virus inhibitors” (Enanta Pharmaceuticals, Inc., priority 2009, dated 2014).
pEC50: −log10 of the molar value.

What follows are molecules tested on HCV 1b genotype replicon (assay: HCV replicon assay (qRT-PCR or luciferase), genotype 1b). Conditions: Hepatitis C virus, read-out: Genotype-1b replicon EC50 Range.
Assay type: cell-based
From the text: HCV replicon cell lines (kindly provided by R. Bartenschlager) isolated from colonies as described by Lohman et. al. (Lohman et al. (1999) Science 285: 110-113, expressly incorporated by reference in its entirety) and used for all experiments. The HCV replicon has the nucleic acid sequence set forth in EMBL Accession No.: AJ242651, the coding sequence of which is from nucleotides 1801 to 8406.
The coding sequence of the published HCV replicon was synthesized and subsequently assembled in a modified plasmid pBR322 (Promega, Madison, Wis.) using standard molecular biology techniques. One replicon cell line (“SGR 11-7”) stably expresses HCV replicon RNA which consists of (i) the HCV 5′UTR fused to the first 12 amino acids of the capsid protein, (ii) the neomycin phosphotransferase gene (neo), (iii) the IRES from encephalomyocarditis virus (EMCV), and (iv) HCV NS2 to NS5B genes and the HCV 3′UTR. Another replicon cell line (“Huh-luc/neo-ET”) described by Vrolijk et. al. (Vrolijk et. al. (2003) Journal of Virological Methods 110:201-209, expressly incorporated by reference in its entirety) stably expresses HCV replicon RNA which consists of (i) the HCV 5′UTR fused to the first 12 amino acids of the capsid protein, (ii) the firefly luciferase reporter gene, (iii) the ubiquitin gene, (iv) the neomycin phosphotransferase gene (neo), (v) the IRES from encephalomyocarditis virus (EMCV), and (vi) HCV NS3 to NS5B genes that harbor cell culture adaptive mutations (E1202G, T12801, K1846T) and the HCV 3′UTR.
These cell lines were maintained at 37° C., 5% CO2, 100% relative humidity in DMEM (Cat#11965-084, Invitrogen), with 10% fetal calf serum (“FCS”, Invitrogen), 1% non-essential amino acids (Invitrogen), 1% of Glutamax (Invitrogen), 1% of 100× penicillin/streptomycin (Cat#15140-122, Invitrogen) and Geneticin (Cat#10131-027, Invitrogen) at 0.75 mg/ml or 0.5 mg/ml for 11-7 and Huh-luc/neo-ET cells, respectively.
EC50 values of single agent compounds and combinations were determined by HCV RNA detection using quantitative RT-PCR, according to the manufacturer's instructions, with a TAQMAN® One-Step RT-PCR Master Mix Reagents Kit (Cat# AB 4309169, Applied Biosystems) on an ABI Model 7500 thermocycler. The TaqMan primers used for detecting and quantifying HCV RNA were obtained from Integrated DNA Technologies. HCV RNA was normalized to GAPDH RNA levels in drug-treated cells, which was detected and quantified using the Human GAPDH Endogenous Control Mix (Applied Biosystems, AB 4310884E). Total cellular RNA was purified from 96-well plates using the RNAqueous 96 kit (Ambion, Cat#AM1812). Chemical agent cytotoxicity was evaluated using an MTS assay according to the manufacturer's directions (Promega).
Since clinical drug resistance often develops in viral infections following single agent therapies, there is a need to assess the additive, antagonistic, or synergistic properties of combination therapies. We use the HCV replicon system to assess the potential use of the compound of the present invention or in combination therapies with Interferon alpha, cyclosporine analogs and inhibitors targeting other HCV proteins. The acute effects of a single or combinations of drugs are studied in the “Huh-luc/neo-ET” replicon with each chemical agent titrated in an X or Y direction in a 6 point two-fold dilution curve centered around the EC50 of each drug. Briefly, replicon cells are seeded at 7,000 cells per well in 90 ul DMEM (without phenol red, Invitrogen Cat.#31053-036) per well with 10% FCS, 1% non-essential amino acids, 1% of Glutamax and 1% of 100× penicillin/streptomycin and incubated overnight at 37° C., 5% CO2, 100% relative humidity. […]
Molecule COC(=O)N[C@H](C(=O)N[C@H]1CCC[C@@H]1Nc1ncc(-c2ccc3cc(-c4c[nH]c([C@@H]5CCCN5C(=O)[C@@H](NC(=O)OC)C(C)C)n4)ccc3c2)cn1)C(C)C (racemic) [373a and 373b] has a pEC50 of over 9.00. For COC(=O)N[C@H](C(=O)N1CCC[C@H]1CNc1ncc(-c2ccc3cc(-c4c[nH]c([C@@H]5CCCN5C(=O)[C@@H](NC(=O)OC)C(C)C)n4)ccc3c2)cn1)C(C)C [Example 83], the pEC50 was under 8.00. With COC(=O)N[C@H](C(=O)N1CCC[C@H]1CNc1ncc2cc(-c3ccc(-c4c[nH]c([C@@H]5CCCN5C(=O)[C@@H](NC(=O)OC)C(C)C)n4)cc3)ccc2n1)C(C)C [Example 294] the pEC50 was over 9.00. COC(=O)N[C@H](C(=O)N1CCC[C@H]1CNc1ccc(-c2ccc3cc(-c4c[nH]c([C@@H]5CCCN5C(=O)[C@@H](NC(=O)OC)C(C)C)n4)ccc3c2)cn1)C(C)C [Example 296] gave a pEC50 of over 9.00. COC(=O)N[C@H](C(=O)N1CCC[C@H]1CNc1nc2ccc(-c3ccc(-c4c[nH]c([C@@H]5CCCN5C(=O)[C@@H](NC(=O)OC)C(C)C)n4)cc3)cc2s1)C(C)C [Example 305] was tested, and the pEC50 was over 9.00. COC(=O)N[C@H](C(=O)N1CCC[C@H]1CNc1ncc(C#Cc2ccc3nc([C@@H]4CCCN4C(=O)[C@@H](NC(=O)OC)C(C)C)[nH]c3c2)cn1)C(C)C [Example 313] gave a pEC50 of under 8.00. With COC(=O)N[C@H](C(=O)N1CCC[C@H]1CNc1ncc2cc(C#Cc3ccc4[nH]c([C@@H]5CCCN5C(=O)[C@@H](NC(=O)OC)C(C)C)nc4c3)ccc2n1)C(C)C [Example 322] the pEC50 was 8.00 to 9.00. Work on COC(=O)N[C@H](C(=O)N1CCC[C@H]1CNc1ncc(-c2ccc(-c3cnc(NC[C@@H]4CCCN4C(=O)[C@@H](NC(=O)OC)C(C)C)nc3)cc2)cn1)C(C)C [Example 370] yielded a pEC50 of under 8.00. Molecule COC(=O)N[C@H](C(=O)N1CCC[C@H]1CNc1nc2ccc(-c3ccc4nc(NC[C@@H]5CCCN5C(=O)[C@@H](NC(=O)OC)C(C)C)sc4c3)cc2s1)C(C)C [Example 377] has a pEC50 of under 8.00. COC(=O)N[C@H](C(=O)N1CCC(Nc2ncc(-c3ccc4cc(-c5c[nH]c([C@@H]6CCCN6C(=O)[C@@H](NC(=O)OC)C(C)C)n5)ccc4c3)cn2)C1)C(C)C (stereo partly shown) [Example 382] was tested, and the pEC50 was 8.00 to 9.00. For COC(=O)N[C@H](C(=O)N1CCC(Nc2ncc(-c3ccc(-c4c[nH]c([C@@H]5CCCN5C(=O)[C@@H](NC(=O)OC)C(C)C)n4)cc3)cn2)C1)C(C)C (stereo partly shown) [Example 384], the pEC50 was 8.00 to 9.00. With COC(=O)N[C@H](C(=O)N1CCC[C@H]1CNc1nc2ccc(-c3ccc4cc(-c5c[nH]c([C@@H]6CCCN6C(=O)[C@@H](NC(=O)OC)C(C)C)n5)ccc4c3)cc2s1)C(C)C [Example 386] the pEC50 was over 9.00. In the case of CCC(CNc1ncc(-c2ccc3cc(-c4c[nH]c([C@@H]5CCCN5C(=O)[C@@H](NC(=O)OC)C(C)C)n4)ccc3c2)cn1)NC(=O)[C@@H](NC(=O)OC)C(C)C (stereo partly shown) [Example 388], the pEC50 was under 8.00. CCC(CNc1ncc(-c2ccc3cc(-c4c[nH]c([C@@H]5CCCN5C(=O)[C@@H](NC(=O)OC)C(C)C)n4)ccc3c2)cn1)N(C)C(=O)[C@@H](NC(=O)OC)C(C)C (stereo partly shown) [Example 390] was tested, and the pEC50 was 8.00 to 9.00. COC(=O)N[C@H](C(=O)N1CCC[C@@H]1CNc1ncc(-c2ccc3cc(-c4cnc([C@@H]5CCCN5C(=O)[C@@H](NC(=O)OC)C(C)C)[nH]4)ccc3c2)cn1)C(C)C [Example 393] was tested, and the pEC50 was 8.00 to 9.00. For COC(=O)N[C@H](C(=O)N1CCC[C@H]1CNc1ncc(C#Cc2ccc(-c3cnc([C@@H]4CCCN4C(=O)[C@@H](NC(=O)OC)C(C)C)[nH]3)cc2)cn1)C(C)C [Example 394], the pEC50 was under 8.00.
